US7776558B2, “Human G protein-coupled receptor and modulators thereof for the treatment of cell death-related disorders” (Arena Pharmaceuticals, Inc., priority 2003, dated 2010)
Values joined by “and” are separate entries in the source; they are usually repeats but may differ in a detail not shown here. Equal entries are not always repeated. “Also recorded” adds a separate entry of the source. Where two headings read alike, the source gives them in different places. Where no end group is shown, it is not given here.

Target: T1, human FPRL2 (Homo sapiens, UniProt P25089)
T1 sequence (P25089 with tags, fused parts or gaps): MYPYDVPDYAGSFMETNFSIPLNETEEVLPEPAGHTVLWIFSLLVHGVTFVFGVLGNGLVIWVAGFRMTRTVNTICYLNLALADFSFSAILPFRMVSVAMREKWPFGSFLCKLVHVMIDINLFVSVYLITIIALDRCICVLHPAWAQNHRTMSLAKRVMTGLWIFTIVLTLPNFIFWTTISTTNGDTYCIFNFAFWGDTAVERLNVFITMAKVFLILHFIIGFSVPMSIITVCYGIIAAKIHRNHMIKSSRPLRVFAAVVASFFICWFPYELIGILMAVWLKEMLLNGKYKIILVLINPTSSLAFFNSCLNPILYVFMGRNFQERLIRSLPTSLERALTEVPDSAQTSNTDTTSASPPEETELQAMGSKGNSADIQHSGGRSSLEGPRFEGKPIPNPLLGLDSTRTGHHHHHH
Assay: [35S]GTPγS binding assay, membranes of transiently transfected CHO cells
Type: biochemical
Design: expressed in transfected cells; host or cells: CHO-K1 cells, transient, pCMV; plasma membranes
Protocol: The plasmids used were HA/V5 doubled tagged endogenous FPRL2 in pCMV, HA/V5 double-tagged endogenous FPRL1 in pCMV, HAN5 double-tagged endogenous FPR in pCMV, and pCMV alone (See, Example 1). Transient transfections were carried out on CHO-K1 cells. To a 15 cm dish of confluent cells, 12 μg of plasmid DNA and 60 μl Lipofectamine (Invitrogen, Carlsbad, Calif.) were added to each plate. Twenty-four hours post-infection, plasma membranes were isolated as described below. Assays were then run as described below.
“Membrane Scrape Buffer” consists of 20 mM HEPES and 10 mM EDTA, pH 7.4; “Membrane Wash Buffer” consists of […] and 0.1 mM EDTA, pH 7.4; “Binding. Buffer” consists of 20 mM HEPES, 100 mM NaCl, and 10 mM MgCl2, pH 7.4.
All materials were kept on ice throughout the procedure. Firstly, the media was aspirated from a confluent monolayer of transfected cells, followed by rinse with 10 ml cold PBS, followed by aspiration. Thereafter, 10 ml of Membrane Scrape Buffer was added to scrape cells; this was followed by transfer of cellular extract into 50 ml centrifuge tubes (centrifuged at 20,000 rpm for 17 minutes at 4° C.). Thereafter, the supernatant was aspirated and the pellet was resuspended in 30 ml Membrane Wash Buffer followed by centrifuging at 20,000 rpm for 17 minutes at 4° C. The supernatant was then aspirated and the pellet resuspended in Binding Buffer. This was then homogenized using a Brinkman Polytron™ homogenizer (15-20 second bursts until the all material is in suspension). This is referred to herein as “Membrane Protein”. A protein determination (Bradford Protein Assay) was carried out, and the protein concentration of the Membrane Protein was adjusted to 1.0 mg/ml with cold Binding Buffer for each of the experimental samples (FPRL2, FPRL1, FPR, pCMV).
GDP Buffer consisted of 37.5 ml Binding Buffer and 2 mg GDP (Sigma, cat. no. G-7127), followed by a series of dilutions in Binding Buffer to obtain 0.2 μM GDP (final concentration of GDP in each well was 0.1 μM GDP); each well comprising a candidate compound, has a final volume of 200 μl consisting of 100 μl GDP Buffer (final concentration, 0.1 μM GDP), 50 μl Membrane Protein in Binding Buffer, and 50 μl [35S]GTPγS (0.6 nM) in Binding Buffer (2.5 μl [35S]GTPγS per 10 ml Binding Buffer).
First, 100 μl GDP Buffer was added to each well of a Wallac Scintistrip™ (Wallac). […] Thereafter, 50 μl of Membrane Protein was added to each well (a control well comprising membranes without the GPCR Protein was also utilized), and pre-incubated for 5-10 minutes at room temperature. Thereafter, 50 μl of [^35S]GTPγS (0.6 nM) in Binding Buffer was added to each well, followed by incubation on a shaker for 60 minutes at room temperature (again, in this example, plates were covered with foil). The assay was then stopped by spinning of the plates at 4000 RPM for 15 minutes at 22° C. The plates were then aspirated with an 8 channel manifold and sealed with plate covers. The plates were then read on a Wallac 1450 using setting “Prot. #37” (as per manufacturer instructions).

[1] = read-out: EC50 in [35S]GTPγS binding assay
[2] = FIG. 3 panel A, transiently transfected CHO cells, read-out: EC50 at FPRL2, promoted [35S]GTPγS binding

Row | EC50 values at FPRL2 relative to the corresponding values at FPRL1 (FPRL2 versus FPRL1) | Compound | EC75 in [35S]GTPγS binding assay | Activity at human FPRL2, FPRL1 and FPR (by [35S]GTPγS binding assay and by melanophore assay, FIG. 5) | EC50 [1] | EC50 [2] | Agonist activity and selectivity for FPRL2 (compared with FPRL1 and FPR, FIG. 3)
1 | – | CC(C)c1ccc2c(c1)CCC1C(C)(C(N)=O)CCCC21C (stereo not drawn) [Compound 1, 7-Isopropyl-1,4a-dimethyl-1,2,3,4,4a,9,10,10a-octahydro-phenanthrene-1-carboxylic acid amide] | about 15 μM | robust and selective agonist of FPRL2 | ~2.8 µM | – | –
2 | – | CC[C@H](C)[C@H](NC(=O)[C@H](CCC(=O)O)NC(=O)[C@H](CO)NC(=O)[C@@H](NC(=O)[C@H](CC(C)C)NC(=O)[C@H](CC(C)C)NC(=O)[C@H](CC(C)C)NC(=O)[C@H](CC(C)C)NC(=O)[C@H](CS)NC(=O)[C@H](CO)NC(=O)[C@H](Cc1ccccc1)NC(=O)CNC(=O)[C@H](CCCNC(=N)N)NC(=O)[C@@H]1CCCN1C(=O)[C@H](C)NC(=O)[C@@H](N)CCSC)[C@@H](C)O)C(=O)N[C@@H](CC(=O)O)C(=O)N[C@@H](CC(C)C)C(=O)N1CCC[C@H]1C(=O)N[C@H](C(=O)N[C@@H](CCCCN)C(=O)N[C@@H](CCCNC(=N)N)C(=O)N[C@@H](CCCNC(=N)N)C(=O)N[C@@H](C)C(=O)O)C(C)C [Humanin] | about 1.5 μM | – | ~0.32 µM and ~0.3 µM | ~0.32 µM | –
3 | more than an order of magnitude lower | MAPRGFSCLLLLTGEIDLPVKRRA [[Gly14]-Humanin] | – | – | – | ~0.072 µM | selective and robust agonists for FPRL2; also recorded: robust and selective agonists for FPRL2
